≈ marks a conversion by molar mass, not a printed value.
Key:
HeLa = experiment: Cell activity (cancer cell proliferation), HeLa; assay type: cell-based; conditions: Homo sapiens
A549 = experiment: Cell activity (cancer cell proliferation), A549; assay type: cell-based; conditions: Homo sapiens
[1] = Stability in mouse liver microsomes; assay type: in vitro ADME; conditions: read-out: Stability (t 1/2) Mouse liver microsomes
[2] = molecular target: human type II topoisomerase (topo II); experiment: Topo II inhibitory activity; assay type: biochemical
G361 = experiment: Cell activity (cancer cell proliferation), G361; assay type: cell-based; conditions: Homo sapiens, G-361
A375 = experiment: Cell activity (cancer cell proliferation), A375; assay type: cell-based; conditions: Homo sapiens, A-375
MCF7 = experiment: Cell activity (cancer cell proliferation), MCF7; assay type: cell-based; conditions: Homo sapiens
DU145 = experiment: Cell activity (cancer cell proliferation), DU145; assay type: cell-based; conditions: Homo sapiens, DU-145
[3] = Stability in mouse plasma; assay type: in vitro ADME; conditions: read-out: Stability (t 1/2) Mouse plasma
Kinetic solubility = assay type: physicochemical; conditions: kinetic from dmso stock
Thermodynamic solubility = assay type: physicochemical; conditions: thermodynamic from solid; Termodinamic

Row | SMILES | IC50 (A549) | IC50 [2] | IC50 (DU145) | half-life [3] | solubility kinetic (Kinetic solubility) | also measured
1 | Nc1ccc2nc(-c3ccncc3)nc(Nc3cccc(F)c3)c2c1 [Example E3, N4-(3-fluorophenyl)-2-(4-pyridyl)quinazoline-4,6-diamine] | 9.2 µM | 80 ± 15 µM | 7.7 µM | 1.48 h | 17 µM (≈ 5.63 µg/mL) | IC50 (HeLa): 4.7 µM; half-life [1]: 0.367 h; IC50 (G361): 10.4 µM; IC50 (A375): 8.3 µM; IC50 (MCF7): 8.6 µM; solubility (Thermodynamic solubility): 0.2 µM (≈ 0.0663 µg/mL)
2 | COc1cccc(Nc2nc(-c3ccncc3)nc3c2CNCC3)c1 [Example E2.2, N-(3-methoxyphenyl)-2-(4-pyridyl)-5,6,7,8-tetrahydropyrido[4,3-d]pyrimidin-4-amine] | 35.3 µM | 120 ± 13 µM | 25 µM | > 2 h | > 250 µM | 
3 | NC1CCc2nc(-c3ccncc3)nc(Nc3ccc(F)cc3)c2C1 (stereo not drawn) [Example E1.8, N4-(4-fluorophenyl)-2-(4-pyridyl)-5,6,7,8-tetrahydroquinazoline-4,6-diamine] |  |  |  | > 2 h | > 250 µM | 
4 | CN(C)c1ccc(Nc2nc(-c3ccncc3)nc3c2CC(N)CC3)cc1 (stereo not drawn) [Example E1.11, N4-[4-(dimethylamino)phenyl]-2-(4-pyridyl)-5,6,7,8-tetrahydroquinazoline-4,6-diamine] |  | 3.5 ± 0.5 µM |  | > 2 h | > 250 µM | half-life [1]: > 1 h; solubility (Thermodynamic solubility): 452 µM (≈ 163 µg/mL)
5 | NC1CCc2nc(-c3ccncc3)nc(Nc3cccc(F)c3)c2C1 (stereo not drawn) [Example E1.1, N4-(3-fluorophenyl)-2-(4-pyridyl)-5,6,7,8-tetrahydroquinazoline-4,6-diamine] |  |  |  | > 2 h | > 250 µM | half-life [1]: > 1 h
6 | Nc1cccc(Nc2nc(-c3ccncc3)nc3c2CC(N)CC3)c1 (stereo not drawn) [Example E1.6, N4-(3-aminophenyl)-2-(4-pyridyl)-5,6,7,8-tetrahydroquinazoline-4,6-diamine] | 75.9 µM | > 500 µM | 37.4 µM |  |  | 
7 | Fc1cccc(Nc2nc(-c3ccncc3)nc3ccccc23)c1 [Example E6, N-(3-fluorophenyl)-2-(4-pyridyl)quinazolin-4-amine] |  |  |  |  |  | Activity Topo II IC50 (μM) [2]: inactive
8 | N[C@H]1CCc2nc(-c3ccncc3)nc(Nc3cccc(F)c3)c2C1 (single isomer, unassigned) [Example E1.3] |  |  |  | > 2 h | > 250 µM | 
9 | Fc1cccc(Nc2nc(-c3ccncc3)nc3ccncc23)c1 [Example E4, N-(3-fluorophenyl)-2-(4-pyridyl)pyrido[4,3-d]pyrimidin-4-amine] |  | > 200 µM |  |  |  | 
10 | NC1CCc2nc(-c3ccncc3)nc(Nc3ccc(O)cc3)c2C1 (stereo not drawn) [Example E1.9, 4-[[6-amino-2-(4-pyridyl)-5,6,7,8-tetrahydroquinazolin-4-yl]amino]phenol] | 74.5 µM | > 500 µM | 20.8 µM |  |  | 
11 | CNc1cccc(Nc2nc(-c3ccncc3)nc3c2CC(N)CC3)c1 (stereo not drawn) [Example E1.7, N4-[3-(methylamino)phenyl]-2-(4-pyridyl)-5,6,7,8-tetrahydroquinazoline-4,6-diamine] | 33.4 µM | > 200 µM | 24.5 µM |  |  | 
12 | N[C@@H]1CCc2nc(-c3ccncc3)nc(Nc3cccc(F)c3)c2C1 (single isomer, unassigned) [Example E1.2] |  |  |  | > 2 h | > 250 µM | 
13 | Nc1cccc(Nc2nc(-c3ccncc3)nc3c2CNCC3)c1 [Example E2.3, N1-[2-(4-pyridyl)-5,6,7,8-tetrahydropyrido[4,3-d]pyrimidin-4-yl]benzene-1,3-diamine] | 513 µM | 150 ± 18 µM | 85.2 µM | > 2 h | > 250 µM | 
14 | Fc1cccc(Nc2nc(-c3ccncc3)nc3c2CNCC3)c1 [Example E2.1, N-(3-fluorophenyl)-2-(4-pyridyl)-5,6,7,8-tetrahydropyrido[4,3-d]pyrimidin-4-amine] | 23.7 µM | 25 ± 5 µM | 32.9 µM | > 2 h | > 250 µM | IC50 (HeLa): 32.3 µM; half-life [1]: 0.65 h; IC50 (G361): 6.1 µM; IC50 (A375): 29.6 µM; IC50 (MCF7): 33.4 µM; solubility (Thermodynamic solubility): 96 µM (≈ 30.9 µg/mL)
15 | CNc1cccc(Nc2nc(-c3ccncc3)nc3c2CNCC3)c1 [Example E2.4, N3-methyl-N1-[2-(4-pyridyl)-5,6,7,8-tetrahydropyrido[4,3-d]pyrimidin-4-yl]benzene-1,3-diamine] | 61.9 µM | 160 ± 20 µM | 45 µM | > 2 h | > 250 µM | 
16 | CN(C)c1cccc(Nc2nc(-c3ccncc3)nc3c2CNCC3)c1 [Example E2.5, N3,N3-dimethyl-N1-[2-(4-pyridyl)-5,6,7,8-tetrahydropyrido[4,3-d]pyrimidin-4-yl]benzene-1,3-diamine] | 40.8 µM | 140 ± 20 µM | 42.5 µM | > 2 h | > 250 µM | 
17 | COc1cccc(Nc2nc(-c3ccncc3)nc3c2CC(N)CC3)c1 (stereo not drawn) [Example E1.5, N4-(3-methoxyphenyl)-2-(4-pyridyl)-5,6,7,8-tetrahydroquinazoline-4,6-diamine] | 26.2 µM |  |  | > 2 h | > 250 µM | 
18 | Fc1ccccc1Nc1nc(-c2ccncc2)nc2c1CNCC2 [Example E2.7, N-(2-fluorophenyl)-2-(4-pyridyl)-5,6,7,8-tetrahydropyrido[4,3-d]pyrimidin-4-amine] |  | 4.5 ± 1 µM |  | > 2 h | > 250 µM | half-life [1]: 0.5 h; solubility (Thermodynamic solubility): 596 µM (≈ 192 µg/mL)
19 | Cc1cccc(Nc2nc(-c3ccncc3)nc3c2CC(N)CC3)c1 (stereo not drawn) [Example E1.4, N4-(m-tolyl)-2-(4-pyridyl)-5,6,7,8-tetrahydroquinazoline-4,6-diamine] | 14.4 µM | 200 ± 20 µM | 12.3 µM | > 2 h | 249 µM (≈ 82.5 µg/mL) | 
20 | Oc1ccc(Nc2nc(-c3ccncc3)nc3c2CNCC3)cc1 [Example E2.6, 4-[[2-(4-pyridyl)-5,6,7,8-tetrahydropyrido[4,3-d]pyrimidin-4-yl]amino]phenol] |  | 200 ± 15 µM |  |  |  | 
21 | NC1CCc2nc(-c3cccnc3)nc(Nc3cccc(F)c3)c2C1 (stereo not drawn) [Example E1.10, N4-(3-fluorophenyl)-2-(3-pyridyl)-5,6,7,8-tetrahydroquinazoline-4,6-diamine] | 21.3 µM |  | 25.4 µM | > 2 h |  | 
